Reference: US20060141024A1, “Synergistic combination kit of alpha,beta-arteether, sulfadoxin and pyrimethamine for treatment of severe/multi-drug resistant cerebral malaria” (COUNCIL OF SIENTIFIC AND INDUSTRIAL RESEARCH, priority 2004, published 2006)
Where two headings read alike, the source gives them in different places.

Experiments:
uncomplicated malaria = details: cited from earlier work
cerebral malaria = details: comatose cerebral malaria cases; quinine intravenous; cited from earlier work
[1] = system: multi drug resistant P. yoelii nigeriensis; assay: Variable regimen of α/β arteether (oral, in oil) and Fansidar (oral) against multi drug resistant P. yoelii nigeriensis in Swiss mice; assay type: in vivo, Plasmodium yoelii nigeriensis
Method: Experimental: Swiss mice (20±2 g) were inoculated intra peritoneal with 1×10^6 Plasmodium yoelii nigeriensis (malaria parasite) infected mouse red blood cells. Fansidar was suspended in tween 80 and then in triple distilled water and different doses i.e., 5, 2.5 and 1.25 mg/kg were admimstered in previously infected Swiss mice. Fansidar was administered by oral route for only 1 day i.e. on day 0. α/β Arteether was dissolved in neutralized and sterilized ground nut oil and doses i.e. 25 mg/kg×1 ×4, 12.5mg/kg×4 were given orally in combination with 5.0, 2.5 and 1.25 mg/kg ×1 dose of Fansidar. These doses of both the drugs were given individually for comparison. One group of mice was kept as infected control. After treatment parasitaemia was recorded from tail blood smears of individual mouse and their mean parasitaemia was calculated.

[2] = im, swiss mice; cited from earlier work
P. falciparum [3] = details: 211 patients of complicated P. falciparum malaria; cited from earlier work
[4] = system: multi drug resistant P. yoelii nigeriensis; assay: α/β arteether (oral, aqueous) and Fansidar (oral) against multi drug resistant P. yoelii nigeriensis in Swiss mice; assay type: in vivo, Plasmodium yoelii nigeriensis
Method: Experimental: Swiss mice (20±2 g) were inoculated intra peritoneal with 1×10^6 Plasmodium yoelii nigeriensis (malaria parasite) infected mouse red blood cells. Fansidar was suspended in tween 80 and then in triple distilled water and different doses i.e. 2.5 and 1.25 mg/kg were administered in previously infected Swiss mice. Fansidar was administered by oral route for only 1 day i.e. on day 0 α/β Arteether was dissolved in tween 80 and triple distilled water and doses i.e. 24 and 12 and 6 mg/kg×4 were given orally in combination with 2.5 and 1.25 mg/kg ×1 dose of Fansidar. These doses of both the drugs were also given individually for comparison. One group of mice was kept as infected control. After treatment parasitaemia was recorded from tail blood smears of individual mouse and their mean parasitaemia was calculated.

P. yoelii nigeriensis = assay: Curative dose against P. yoelii nigeriensis in swiss mice; assay type: in vivo, Plasmodium yoelii nigeriensis; details: for three days (x3), intramuscular
Method: The curative dose of α,β arteether against P. yoelii nigeriensis in gwiss mice (a murine model equivalent to P. falciparum in human) is 7.5 mg/kg for three days. Sulfadoxin/pyrimethtnine combination is usually given for P. falciparum infection, to adult humans as a single dose of 1500 mg sulfadoxin and 75 mg pyremethamine (usually in 3 tablets of 500 mg sulfadoxin and 25 mg pyremethamine) (practical chemotherapy of malaria, WHO, Geneva 1990). For children if they are below 40 kg, only 2 tablets are recommended. […] Although resistance to Fansidar is documented in expatriates in East Africa (Schapira et al. 1986), the drug is reported to be generally effective in the indigenous population (Spencer et al. 1984) and it is treated as second line of drug and is the only affordable drug for chloroquine resistant cases in developing countries. In combination the proposed doses of α,β arteether plus sulfadoxin and pyrimethamine for humans would be 150 mg×3 (im injections) or 450-750 mg×5 (oral dose) of α,β arteether with three tablets of 500 mg sulfadoxin and 25 mg of pyrimethamine for P. falciparum. The proposed combination therapy will certainly reduce the incidence of recrudescence and new infection in high transmission areas.

[5] = system: multi drug resistant P. yoelii nigeriensis; assay: Shorter regimen of α/β arteether (im) and Fansidar (oral) against multi drug resistant P. yoelii nigeriensis in Swiss mice; assay type: in vivo, Plasmodium yoelii nigeriensis
Method: Experimental: Swiss mice (20±2 g) were inoculated intra peritoneal with 1×10^6 Plasmodium yoelii nigeriensis (malaria parasite) infected mouse red blood cells. Faosidar was suspended in tween 80 and then in triple distilled water and 2.5 mg/kg dose was administered in previously infected Swiss mice. Fansidar was administered by oral route for only 1 day i.e. on day 0 or day 1. α/β Arteether was dissolved in neutralized and sterilized ground nut oil and doses i.e. 7.5 mg/kg×1, ×2, 5 mg/kg×1, ×2 by intramuscular route were given in combination with 2.5 mg/kg ×1 dose of Fansidar. These doses of both the drugs were given individually for comparison. One group of mice was kept as infected control. After treatment parasitaemia was recorded from tail blood smears of individual mouse.

[6] = system: multi drug resistant P. yoelii nigeriensis; assay: Arteether (im, x3) and Fansidar (oral, x1) in combination against multi drug resistant P. yoelii nigeriensis infection in Swiss mice; assay type: in vivo, Plasmodium yoelii nigeriensis
Method: Experimental: Swiss mice (20±2 g) were inoculated intra peritoneal with 1×10^6 Plasmodium yoelii nigeriensis (malaria parasite) infected mouse red blood cells. Fansidar was suspended in tween 80 and then in triple distilled water and two different doses, i.e. 1.25-2.5 mg/kg were administered in previously infected Swiss mice. Fansidar was administered by oral route for only 1 day. α/β Arteether was dissolved in neutralized and sterilized ground nut oil and doses i.e. 1.25, 1.78 and 2.5mg/kg were administered by intramuscular route for 3 days. In other groups of infected mice these drugs were given individually for comparison. 2.5, 1.78 and 1.25 mg/kg and α/β arteether were given in combinations with 2.5 and 1.25 mg/kg Fansidar. One group of mice was kept as infected control. After treatment parasitaemia was recorded from tail blood smears of individual mouse. (Table-1)

P. falciparum [7] = details: arteether 150 mg i.m. daily for three days, uncomplicated P. falciparum malaria, cited from earlier work
P. falciparum [8] = details: cited from earlier work
[9] = arteether 12.5 mg/kg x4 oral (in oil) alone
[10] = arteether 25.0 mg/kg x4 oral (in oil) alone
[11] = arteether 6 mg/kg x4 oral (aqueous) alone
[12] = arteether 12 mg/kg x4 oral (aqueous) alone
[13] = arteether 24 mg/kg x4 oral (aqueous) alone
[14] = arteether 5.0 mg/kg x1 (day 0) im alone
[15] = arteether 5.0 mg/kg x2 (days 0, 1) im alone
[16] = arteether 7.5 mg/kg x1 (day 0) im alone
[17] = arteether 7.5 mg/kg x2 (days 0, 1) im alone
[18] = arteether 1.25 mg/kg x3 im alone
[19] = arteether 1.78 mg/kg x3 im alone
[20] = arteether 2.5 mg/kg x3 im alone

For C[C@@H]1CC[C@H]2[C@@H](C)C(=O)O[C@@H]3O[C@@]4(C)CC[C@@H]1[C@]32OO4 [artemisiain, artemisinin], the recrudescence (uncomplicated malaria; 20 mg/kg x3 days) is given as 38%, the recrudescence (uncomplicated malaria; 20 mg/kg x5 days) is given as 15% and the “reduction in parasitaemia (time)” value (cerebral malaria) is given as 16 h.
With CCO[C@H]1O[C@@H]2O[C@@]3(C)CC[C@H]4[C@H](C)CC[C@@H]([C@H]1C)[C@@]24OO3 [α/β arteether, α,β-Arteether] the “% Cure rate” value [1, 9] was 28.5%, the “Mice remained negative on day 4” value [1, 9] was 5/7 and the “Mice remained negative on day 7” value [1, 9] was 3/7. For the same compound, the “Mice remained negative on day 14” value [1, 9] was 2/2, the “Mice remained negative on day 21” value [1, 9] was 2/2 and the “Mice remained negative on day 28” value [1, 9] was 2/2. The “% Cure rate” value [1, 10] was 57.1%, the “Mice remained negative on day 4” value [1, 10] was 7/7 and the “Mice remained negative on day 7” value [1, 10] was 7/7. The “Mice remained negative on day 14” value [1, 10] was 4/4, the “Mice remained negative on day 21” value [1, 10] was 4/4 and the “Mice remained negative on day 28” value [1, 10] was 4/4. The LD50 [2] was 1250 mg/kg, the fever clearance time (P. falciparum [3]) was 24 to 168 h and the overall cure rate (P. falciparum [3]) was 93%. For the same compound, the “% Cure rate” value [4, 11] was 0.0%, the “Mice remained negative on day 4” value [4, 11] was 5/7 and the “Mice remained negative on day 7” value [4, 11] was 0/3. For the same compound, the “% Cure rate” value [4, 12] was 0.0%, the “Mice remained negative on day 4” value [4, 12] was 3/7 and the “Mice remained negative on day 7” value [4, 12] was 0/5. For the same compound, the “% Cure rate” value [4, 13] was 14.28%, the “Mice remained negative on day 4” value [4, 13] was 7/7 and the “Mice remained negative on day 7” value [4, 13] was 3/6. For the same compound, the “Mice remained negative on day 14” value [4, 13] was 1/3, the “Mice remained negative on day 21” value [4, 13] was 1/2 and the “Mice remained negative on day 28” value [4, 13] was 1/1. The “curative dose with oral formulation (calculated)” value ([4]; x4, oral, aqueous (tween 80/water)) was 72 mg/kg, the curative dose (P. yoelii nigeriensis) was 7.5 mg/kg and the “Cure rate (%)” value [5, 14] was 0.0%. For the same compound, the “Day 4 mice negative/total” value [5, 14] was 6/6, the “Day 7 mice negative/total” value [5, 14] was 2/6 and the “Day 10 mice negative/total” value [5, 14] was 0/4. For the same compound, the “Cure rate (%)” value [5, 15] was 83.3%, the “Day 4 mice negative/total” value [5, 15] was 6/6 and the “Day 7 mice negative/total” value [5, 15] was 6/6. The “Day 10 mice negative/total” value [5, 15] was 6/6, the “Day 14 mice negative/total” value [5, 15] was 6/6 and the “Day 21 mice negative/total” value [5, 15] was 5/5. For the same compound, the “Day 28 mice negative/total” value [5, 15] was 5/5, the “Cure rate (%)” value [5, 16] was 83.3% and the “Day 4 mice negative/total” value [5, 16] was 6/6. For the same compound, the “Day 7 mice negative/total” value [5, 16] was 6/6, the “Day 10 mice negative/total” value [5, 16] was 6/6 and the “Day 14 mice negative/total” value [5, 16] was 6/6. For the same compound, the “Day 21 mice negative/total” value [5, 16] was 5/5, the “Day 28 mice negative/total” value [5, 16] was 5/5 and the “Cure rate (%)” value [5, 17] was 100%. The “Day 4 mice negative/total” value [5, 17] was 6/6, the “Day 7 mice negative/total” value [5, 17] was 6/6 and the “Day 10 mice negative/total” value [5, 17] was 6/6. The “Day 14 mice negative/total” value [5, 17] was 6/6, the “Day 21 mice negative/total” value [5, 17] was 6/6 and the “Day 28 mice negative/total” value [5, 17] was 6/6. The “Cure rate (%)” value [6, 18] was 0.0%, the “Day 4 mice negative/total” value [6, 18] was 3/6 and the “Day 7 mice negative/total” value [6, 18] was 0/6. For the same compound, the “Cure rate (%)” value [6, 19] was 16.6%, the “Day 4 mice negative/total” value [6, 19] was 6/6 and the “Day 7 mice negative/total” value [6, 19] was 5/6. The “Day 14 mice negative/total” value [6, 19] was 2/2, the “Day 18 mice negative/total” value [6, 19] was 1/2 and the “Day 21 mice negative/total” value [6, 19] was 1/2. The “Day 28 mice negative/total” value [6, 19] was 1/1, the “Cure rate (%)” value [6, 20] was 66.6% and the “Day 4 mice negative/total” value [6, 20] was 6/6. The “Day 7 mice negative/total” value [6, 20] was 6/6, the “Day 14 mice negative/total” value [6, 20] was 4/4 and the “Day 18 mice negative/total” value [6, 20] was 4/4. The “Day 21 mice negative/total” value [6, 20] was 4/4, the “Day 28 mice negative/total” value [6, 20] was 4/4 and the cure rate (P. falciparum [7]; 267 patients) was 97%. The fever clearance time (P. falciparum [7]) was 1 to 7 days and the parasite clearance time (P. falciparum [7]) was 1 to 3 days.
For CO[C@H]1O[C@@H]2O[C@@]3(C)CC[C@H]4[C@H](C)CC[C@@H]([C@H]1C)[C@@]24OO3 [artemether], the LD50 [2] is listed as 263 mg/kg.
For C=C[C@H]1C[N@@]2CC[C@H]1C[C@H]2[C@H](O)c1ccnc2ccc(OC)cc12 [quinine], the recrudescence (uncomplicated malaria; 10 mg/kg x7 days) is given as 16% and the “reduction in parasitaemia (time)” value (cerebral malaria) is given as 34.5 h.
For C[C@H]1[C@H](OC(=O)CCC(=O)O)O[C@@H]2O[C@@]3(C)CC[C@H]4[C@H](C)CC[C@@H]1[C@@]24OO3 [artesunate], the LD50 [2] is given as 475 mg/kg.
For COc1ncnc(NS(=O)(=O)c2ccc(N)cc2)c1OC [sulfadoxin], the “concentration giving 100% inhibition in vitro” value (P. falciparum [8]) is listed as less than 5.0 mmol/lit.
